The source of these data is patent publication US7820700B2, “2-phenylpyridine derivative” (Astellas Pharma Inc., priority 2004, dated 2010).

Structures are written as SMILES. pIC50: −log10 of the molar value. Where a name gives a salt, the structure may show the parent alone.

In data set [1] the target is T1, xanthine oxidase (derived from butter milk) (Bos taurus, UniProt P80457).
T1 construct: xanthine oxidase (derived from butter milk, manufactured by Sigma); purchased Sigma; host or cells: butter milk (natural source)
As to the kind of experiment: Xanthine oxidase-inhibitory activity (pterin oxidation, fluorescence). The data set is classed as biochemical. The conditions noted are these: pterin 5 μM, room temperature; read-out: IC50 (xanthine oxidase inhibition). The protocol:
A test compound was dissolved in DMSO (manufactured by Nakarai) so as to be a concentration of 10 mM and then used after the concentration was adjusted to an aimed one at use.
The evaluation of xanthine oxidase-inhibitory activity of the compound of the invention was carried out using a method described in a document (Free Radic. Biol. Med. 6, 607-615, 1992) with partial modification. Namely, xanthine oxidase (derived from butter milk, manufactured by Sigma) was adjusted to 0.03 units/ml using a 50 mM phosphate buffer and was added to a 96-well plate in an amount of 50 μl/well. Each test compound diluted so as to be a final concentration was added thereto in an amount of 2 μl/well, followed by treatment at room temperature for 20 minutes. Pterin (manufactured by Sigma) was added thereto so as to be a final concentration of 5 μM, followed by reaction at room temperature for 10 minutes. Measurement was performed using a microplate reader saphire (manufactured by Tecan) under conditions of excitation at 345 nm and emission at 390 nm (pterin was oxidized by xanthine oxidase into isoxanthopterin, which emitted a light under the conditions).
The concentration of the test compound at which 50% inhibition was observed (IC50 value) was calculated, the emissions of isoxanthopterin under conditions of the presence or absence of xanthine oxidase being 0% inhibition and 100% inhibition, respectively.

The test system of a further data set is TNBS-induced enteritis. In words: Trinitrobenzenesulfonic acid-induced enteritis-inhibitory action. The conditions noted are these: 3 mg/kg oral once a day, dissection on 21st day, Wistar rat. Format: in vivo, male Wistar rats. As to the method:
The effectiveness of the compound of the invention on an enteritis model can be also evaluated by a model using trinitrobenzenesulfonic acid (TNBS) as an inducing agent instead of acetic acid (Cell. Mol. Biol, 38, 189-199, 1992). Thus, referring to the method described in the report, the enteritis-suppressing action of the compound of the invention was evaluated.
Namely, TNBS or physiological saline as a normal group was administered into the rectum of male Wistar rats of 200 to 250 g. Thereafter, a test compound or 0.5% methyl cellulose (control group) was orally administered once a day and dissection was performed on each administered group on 21st day. A part of the large intestine 2 to 7 cm from the anus side was cut out and incised. After feces were removed by means of tweezers, the part was washed and a score of morbid conditions was evaluated and tissue weight was measured. The score of morbid conditions and a tissue weight increase-suppressing ratio were calculated as in the evaluation method of the above acetic acid-induced enteritis-suppressing action.

A further data set addresses T2, AKR1C3 (17βHSD5) (Homo sapiens, UniProt P42330).
T2 sequence (P42330 1-323): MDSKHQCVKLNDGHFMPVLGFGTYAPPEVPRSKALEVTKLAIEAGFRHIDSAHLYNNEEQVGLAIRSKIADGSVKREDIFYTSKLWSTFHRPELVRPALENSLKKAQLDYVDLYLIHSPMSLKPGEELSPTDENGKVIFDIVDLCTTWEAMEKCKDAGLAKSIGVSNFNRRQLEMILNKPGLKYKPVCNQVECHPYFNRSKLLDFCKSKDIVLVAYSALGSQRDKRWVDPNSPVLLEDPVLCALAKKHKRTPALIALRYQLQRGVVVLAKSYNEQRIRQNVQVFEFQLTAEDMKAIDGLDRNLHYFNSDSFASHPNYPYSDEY
As to the kind of experiment: AKR1C3 inhibitory action (DELFIA Testosterone Reagents). The data set is classed as biochemical. The conditions noted are these: read-out: IC50 (AKR1C3 inhibition). The source says: AKR1C3 known as a molecule belonging to aldo-keto reductase is known as a multifunctional enzyme (Jikken Igaku 23, 90-97, 2005). There is expected the application of a compound inhibiting AKR1C3 to various morbid conditions including inflammatory diseases (Mol. Pharmacol 67, 60-68, 2005) (Current Pharmaceutical Design 10, 3505-3524, 2004) (J. Biol. Chem 273, 1855-1888, 1998).

Data set [2] has as its system pyrimidine synthetic pathway (BUN level). In words: Pyrimidine synthetic pathway-inhibitory action (influence on BUN level). Format: in vivo. The conditions noted are these: oral administration of 30 mg/kg. The source says:
Allopurinol which is an existing hyperuricemia therapeutic drug is known to cause renal dysfunction as an undesirable action. As mentioned previously, since allopurinol has a nucleic acid-like structure, as one cause thereof, it is presumed that it inhibits pyrimidine synthetic pathway. […] Thus, according to the method described in the document, the influence of the compounds of the invention on a BUN level was confirmed.

Data set [3] has as its system VEGF mRNA in the vitreous body. In words: Diabetic retinopathy model (streptozotocin), VEGF mRNA in the vitreous body. Format: in vivo, male Wistar rat. To be noted: 30 mg/kg oral once a day for 7 days, STZ rats, vs control group. As to the method: The efficiency of the compound of the invention on diabetic retinopathy was tested by the method described in European Journal of Pharmacology 458 (2003) 283-289 (except that the animal used in the experiment was male Wistar rat, 10 weeks old).
Streptozotocin (STZ) was administered to the animals to be tested and increase in blood sugar level was confirmed after 24 hours. Thereafter, the animals were divided into a 0.5% methyl cellulose-administered group (control group) and 30 mg/kg test compound-administered group and oral administration was performed once a day for 7 days.

T1 sequence (P80457 whole entry): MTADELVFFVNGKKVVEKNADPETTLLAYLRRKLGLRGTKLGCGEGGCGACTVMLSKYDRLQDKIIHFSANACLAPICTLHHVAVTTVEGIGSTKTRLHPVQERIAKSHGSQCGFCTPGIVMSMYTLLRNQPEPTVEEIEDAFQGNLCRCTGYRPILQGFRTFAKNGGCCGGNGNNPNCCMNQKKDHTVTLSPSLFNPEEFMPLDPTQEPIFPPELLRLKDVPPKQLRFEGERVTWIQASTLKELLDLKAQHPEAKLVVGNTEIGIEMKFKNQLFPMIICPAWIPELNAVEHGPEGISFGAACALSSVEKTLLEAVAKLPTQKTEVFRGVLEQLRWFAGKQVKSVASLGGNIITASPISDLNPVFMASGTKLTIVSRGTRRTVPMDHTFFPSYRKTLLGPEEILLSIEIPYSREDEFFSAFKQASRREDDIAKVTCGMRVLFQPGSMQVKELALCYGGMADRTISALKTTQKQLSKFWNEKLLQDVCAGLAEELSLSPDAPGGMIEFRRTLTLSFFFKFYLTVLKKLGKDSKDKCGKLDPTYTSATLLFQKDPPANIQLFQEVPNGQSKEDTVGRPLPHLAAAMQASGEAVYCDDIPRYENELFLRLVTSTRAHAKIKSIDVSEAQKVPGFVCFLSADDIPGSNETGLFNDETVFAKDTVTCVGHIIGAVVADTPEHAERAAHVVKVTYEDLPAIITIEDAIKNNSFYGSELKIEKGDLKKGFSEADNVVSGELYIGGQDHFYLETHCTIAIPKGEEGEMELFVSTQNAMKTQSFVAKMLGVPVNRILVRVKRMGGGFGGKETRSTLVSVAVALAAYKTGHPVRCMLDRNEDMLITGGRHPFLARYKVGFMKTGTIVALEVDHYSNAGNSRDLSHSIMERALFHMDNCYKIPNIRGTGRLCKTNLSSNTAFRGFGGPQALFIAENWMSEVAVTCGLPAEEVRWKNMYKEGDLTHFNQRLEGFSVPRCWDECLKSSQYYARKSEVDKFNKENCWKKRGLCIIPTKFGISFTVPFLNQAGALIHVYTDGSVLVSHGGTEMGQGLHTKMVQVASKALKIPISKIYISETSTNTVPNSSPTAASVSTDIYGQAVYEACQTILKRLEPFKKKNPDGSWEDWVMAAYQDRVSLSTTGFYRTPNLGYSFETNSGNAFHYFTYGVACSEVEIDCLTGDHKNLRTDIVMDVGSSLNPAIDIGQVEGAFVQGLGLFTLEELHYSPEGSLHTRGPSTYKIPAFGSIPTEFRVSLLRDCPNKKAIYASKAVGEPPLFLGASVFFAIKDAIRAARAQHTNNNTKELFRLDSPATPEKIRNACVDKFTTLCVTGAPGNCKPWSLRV

A word on the pIC50: it is −log10 of the IC50, conventionally taken in molar units. In the case of `COC1(C2CCCCC2)CCN(c2ccc(-c3cc(C(=O)O)ccn3)cc2C#N)CC1` [Example 67], the negative logarithm of the IC50 (pIC50) in data set [1] was 8.66.

On to `N#Cc1cc(-c2cc(C(=O)O)ccn2)ccc1N1CC=CCC1` [Example 49], for which the pIC50 in data set [1] is 8.55.

As for `CC(C)COc1ccc(-c2cc(C(=O)O)ccn2)cc1C#N` [Example 1, 2-(3-cyano-4-isobutoxyphenyl)isonicotinic acid], the negative logarithm of the IC50 (pIC50) in data set [1] is 8.44. Take `N#Cc1cc(-c2cc(C(=O)O)ccn2)ccc1OCc1ccccn1` [Example 21]: the pIC50 in data set [1] is 8.00. Still for that read-out and setting: the same measure for `CC(C)COc1ccc(-c2cc(C(=O)O)c(Cl)cn2)cc1C#N` [Example 77]: 8.40; for `N#Cc1cc(-c2cc(C(=O)O)ccn2)ccc1OCC(F)(F)F` [Example 13]: 8.00. In the case of `CC(C)COc1ccc(-c2nccc(C(=O)O)c2F)cc1C#N` [Example 75], the pIC50 in data set [1] was 8.49. Still for that read-out and setting: the same measure for `N#Cc1cc(-c2cc(C(=O)O)ccn2)ccc1OCCOc1cc(F)cc2c1OCCC2` [Example 33]: 8.14; for `CC1(C)CC(Oc2ccc(-c3cc(C(=O)O)ccn3)cc2C#N)CC(C)(C)C1` [Example 44]: 8.37.

On to `CCCCN(C)c1ccc(-c2cc(C(=O)O)ccn2)cc1C#N` [Example 57], for which, in data set [1], the pIC50 is 8.51. Consider `N#Cc1cc(-c2cc(C(=O)O)ccn2)ccc1OC1CCOCC1` [Example 14], for which, in data set [1], the pIC50 was 8.39.

With `CSCCCOc1ccc(-c2cc(C(=O)O)ccn2)cc1C#N` [Example 3, 2-{3-cyano-4-[3-(methylthio)propoxy]phenyl}isonicotinic acid], the negative-log IC50 (pIC50) in data set [1] was 8.30.

Take `CC(C)=CCOc1ccc(-c2cc(C(=O)O)ccn2)cc1C#N` [Example 72]: the pIC50 in data set [1] is 8.51. Consider `N#Cc1cc(-c2cc(C(=O)O)ccn2)ccc1N1CCCCCC1` [Example 4, 2-(4-azepan-1-yl-3-cyanophenyl)isonicotinic acid monohydrochloride], for which the “Suppression of intestinal tissue weight increase” value with TNBS-induced enteritis was ≥ 70%. The pIC50 on AKR1C3 (17βHSD5) was ≥ 6.00; in data set [1], 8.92. Further, the “Pyrimidine synthetic pathway inhibitory action (BUN level)” value in data set [2] is given as “no inhibitory action”. In data set [3], the “Suppression of increase of VEGF mRNA in the vitreous body” value was “significant suppressing action”. Take `N#Cc1cc(-c2cc(C(=O)O)ccn2)ccc1OCc1ccccc1` [Example 9]: in data set [1], the pIC50 is 8.59. Consider `N#Cc1cc(-c2cc(C(=O)O)ccn2)ccc1OCCOc1ccccc1` [Example 30], for which the negative logarithm of the IC50 (pIC50) in data set [1] was 8.38. Take `CC1CCN(c2ccc(-c3cc(C(=O)O)ccn3)cc2C#N)CC1` [Example 45]: the “Pyrimidine synthetic pathway inhibitory action (BUN level)” value in data set [2] is “no inhibitory action”. For the same molecule, the negative-log IC50 (pIC50) in data set [1] was 8.89. With `N#Cc1cc(-c2cc(C(=O)O)ccn2)ccc1NC1CCCCCC1` [Example 63], the pIC50 in data set [1] was 8.96.

For the molecule `CC(C)CSc1ccc(-c2cnccc2C(=O)O)cc1C#N` [Example 7, sodium 5-[3-cyano-4-(isobutylthio)phenyl]isonicotinate], the pIC50 in data set [1] was 8.60.

For `CC(C)COc1c(Br)cc(-c2cc(C(=O)O)ccn2)cc1C#N` [Example 79], the pIC50 in data set [1] is 8.24.
